These are literature values, as cited in publication PMC4448982, “LP-925219 maximizes urinary glucose excretion in mice by inhibiting both renal SGLT1 and SGLT2” (Pharmacology Research & Perspectives, 2015).

The subject of one series is SGLT2. Further details: method as in Rieg et al. [2014]. As to conditions: ref Rieg et al. [2014], cited from earlier work.
On the set-up of series [1]: method as in Powell et al. [2014]. The conditions noted are these: human; ref Powell et al. [2014]; cited from earlier work.
On the set-up of series [2]: method as in Powell et al. [2014]. As to conditions: mouse; ref Powell et al. [2014]; cited from earlier work.

SMILES strings stand for the structures. Where two headings read alike, the source gives them in different places.

Turning to `OC[C@H]1O[C@@H](c2ccc(Cl)c(Cc3ccc(O[C@H]4CCOC4)cc3)c2)[C@H](O)[C@@H](O)[C@@H]1O` [empagliflozin], the “reduction of glucose reabsorption” value is recorded as 100% in the series with SGLT2 (SGLT1 KO mice) and 56% in the series on SGLT2 (WT mice).

As for `CCOc1ccc(Cc2cc([C@@H]3O[C@H](SC)[C@@H](O)[C@H](O)[C@H]3O)ccc2Cl)cc1` [sotagliflozin], the plasma protein binding in series [1] and in series [2] was above 90% in each case.
